Data taken from ChEMBL document CHEMBL3853344, “A druggable target for rescuing microRNA defects” (Bioorg Med Chem Lett, 2016).
Active and inactive are the calls of the source. The calls are words filed in the database; no cut-off is given here.

tested on: T1, Translin-associated protein X (Homo sapiens), Q99598 [E126A]; experiment: Inhibition of wild type His-tagged translin/trax E126A mutant (unknown origin) coexpressed in Escherichia coli BL21 cells using RNase Alert as substrate at 30 uM incubated for 10 mins prior to substrate addition monitored over 60 mins by fluorescence assay
T1 sequence (whole entry): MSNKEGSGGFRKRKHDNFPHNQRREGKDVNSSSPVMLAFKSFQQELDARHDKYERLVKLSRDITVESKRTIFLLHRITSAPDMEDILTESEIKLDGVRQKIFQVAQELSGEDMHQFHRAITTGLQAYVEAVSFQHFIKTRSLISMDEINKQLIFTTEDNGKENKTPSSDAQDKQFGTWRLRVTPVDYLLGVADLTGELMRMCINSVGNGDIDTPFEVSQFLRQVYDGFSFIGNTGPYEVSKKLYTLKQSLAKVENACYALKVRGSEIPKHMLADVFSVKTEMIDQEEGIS

| SMILES | inhibition [%] |
| --- | --- |
| O=C(O[C@@H]1Cc2c(O)cc(O)cc2O[C@@H]1c1cc(O)c(O)c(O)c1)c1cc(O)c(O)c(O)c1 | 88 |
| Cc1ccc(C(=O)Nc2ccc(S(=O)(=O)O)c3cc(S(=O)(=O)O)cc(S(=O)(=O)O)c23)cc1NC(=O)c1cccc(NC(=O)Nc2cccc(C(=O)Nc3cc(C(=O)Nc4ccc(S(=O)(=O)O)c5cc(S(=O)(=O)O)cc(S(=O)(=O)O)c45)ccc3C)c2)c1 | 61 |
| O=c1c(O)c(-c2ccc(O)c(O)c2)oc2cc(O)cc(O)c12 | 58 |
| O=C1C(O)=C(O)C(=O)C(O)=C1O | 66 |
| Oc1cc2c(cc1O)[C@@H]1c3ccc(O)c(O)c3OC[C@]1(O)C2 | 63 |
| O=S(=O)(O)c1cc(N=C=S)ccc1/C=C/c1ccc(N=C=S)cc1S(=O)(=O)O | 103 |
| O=C(Oc1cc(O)cc2c1C[C@@H](OC(=O)c1cc(O)c(O)c(O)c1)[C@@H](c1cc(O)c(O)c(O)c1)O2)c1cc(O)c(O)c(O)c1 | 83 |
| CCCCC(CC)CNC(=N)NC(=N)NCCCCCCNC(=N)NC(=N)NCC(CC)CCCC (stereo unspecified) | 103 |
| Cc1cc(O)c(C=O)c2c1C(=O)Oc1c(C)c(O)c3c(c1O2)C(O)OC3=O (stereo unspecified) | 66 |
| Oc1cc(O)c2c(c1)O[C@H](c1cc(O)c(O)c(O)c1)[C@H](O)C2 | 68 |
| CCCCCCCCCCCCCCCC[n+]1ccccc1 | 56 |
| O=c1c(-c2cc(O)c(O)c(O)c2)coc2cc(O)c(O)c(O)c12 | 78 |
| COc1cc(C)c2c(c1C=O)Oc1c(c(C)c(O)c3c1C(O)OC3=O)OC2=O (stereo unspecified) | 58 |
| O=C(OC[C@H]1O[C@@H](OC(=O)c2cc(O)c(O)c(OC(=O)c3cc(O)c(O)c(O)c3)c2)[C@H](OC(=O)c2cc(O)c(O)c(OC(=O)c3cc(O)c(O)c(O)c3)c2)[C@@H](OC(=O)c2cc(O)c(O)c(OC(=O)c3cc(O)c(O)c(O)c3)c2)[C@@H]1OC(=O)c1cc(O)c(O)c(OC(=O)c2cc(O)c(O)c(O)c2)c1)c1cc(O)c(O)c(OC(=O)c2cc(O)c(O)c(O)c2)c1 | 103 |
| CC(C)(O/N=C(\C(=O)N[C@@H]1C(=O)N2C(C(=O)[O-])=C(C[n+]3ccccc3)CS[C@H]12)c1csc(N)n1)C(=O)O | 100 |
| O=c1c(O)cc(C2Oc3cc(O)cc(O)c3CC2O)cc2cc(O)c(O)c(O)c12 (stereo unspecified) | 75 |
| Oc1c(Cl)cc(Cl)c(Cl)c1Cc1c(O)c(Cl)cc(Cl)c1Cl | 66 |
| CCCCCCCCCCCCCCCCC(C(=O)O)C(O)(CC(=O)O)C(=O)O (stereo unspecified) | 58 |
| O=c1oc2c(O)c(O)cc3c(=O)oc4c(O)c(O)cc1c4c23 [ELLAGIC ACID] | 94 |

tested on: T1, Translin-associated protein X (Homo sapiens), Q99598 [E126A]; experiment: Inhibition of wild type His-tagged translin/trax E126A mutant (unknown origin) coexpressed in Escherichia coli BL21 cells assessed as increase in Dicer-mediated 5'-gamma32P-ATP labeled pre-miRNA processing at 5 uM after 15 mins by gel electrophoresis assay

| SMILES | inhibition |
| --- | --- |
| O=c1oc2c(O)c(O)cc3c(=O)oc4c(O)c(O)cc1c4c23 [ELLAGIC ACID] | Active |

biological target: Translin-associated protein X (Homo sapiens, UniProt Q99598, E126A); experiment: Inhibition of wild type His-tagged translin/trax E126A mutant (unknown origin) coexpressed in Escherichia coli BL21 cells assessed as reduction in pre-miRNA degradation by gel electrophoresis assay

| SMILES | IC50 [µM] |
| --- | --- |
| O=c1oc2c(O)c(O)cc3c(=O)oc4c(O)c(O)cc1c4c23 [ELLAGIC ACID] | 3.5 |
